Several values for one entry are separate records, joined by “and”; a condition that tells them apart may be missing. Equal values may be shown once. Read-outs that look alike come from different tables or passages of the source.
What was measured:
HIV-1 WT RT = HIV-1 WT RT (Human immunodeficiency virus type 1 group M subtype B, UniProt P03366); experiment: biochemical; type: biochemical; details: for inhibition at 10 µM: read-out: % inhibn (10 μM)
HIV-1 WT virus (NL4-3) = experiment: microbe, parasite or virus in culture; type: cell-based; details: for cytotoxicity and anti-viral effect, summary graph, result in words: FIGS. 10-12; for EC50 / EC50 (μM): Table 11, CEMSS/NL4-3, NRVC = no reduction in viral CPE; for EC50: read-out: EC50; for inhibitory potency against HIV-1 (CIC50), result in words: CEMSS cell culture, WT virus (NL4-3), relative to parent compounds 1 and 2
Description: Evaluation of these compounds for the inhibition of HIV-1 was determined as the fifty percent cell culture inhibitory concentration (CIC50) in CEMSS cell culture with WT virus (NL4-3).
In this Example, the antiviral and cellular toxicity of NNRTIs was investigated, using the cytopathic cell killing assay described by Yang (Yang et al., “Characteristics of a Group of Non-nucleoside Reverse Transcriptase Inhibitors with Structural Diversity and Potent Anti-Human Immunodeficiency Virus Activity,” Leukemia 9:S75-S85 [1995]). Briefly, in this method cells (e.g., the CEM-SS cell line, available from the NIAID AIDS Research and Reference Program [ARRRP]) were seeded at a density of 5×10^3 cells/well, into the wells of a 96-well microtiter plate. The cells were then infected with HIV virus (either mutant or WT), at a multiplicity of infection (MOI) previously determined to provide complete cell killing by 6 days of culture post-infection (e.g., MOI of 0.01-0.05). Each of the HIV isolates was pre-titered to induce equivalent levels of infection based on cell killing or virus production, prior to their use in these assays. A range of test compound concentrations was added to the wells in triplicate (e.g., serial half-log dilutions) to evaluate inhibition of HIV infection. Controls for each assay included drug controls (drug colorimetric control wells), drug cytotoxicity control wells (cells with drug), virus control wells (cells with virus), and cell viability controls (cells only). Positive control drugs (e.g. AZT and ddC) were also run in parallel.
After six days of incubation at 37° C., cell viability was determined spectrophotometrically at 450 nm for each well, using the metabolic reduction of XTT to a soluble colored formazan. (See, Gartner and Popovic, “Virus Isolation and Production, in Aldovini and Walker (eds.), Techniques in HIV Research, Stockton Press, NY, pp. […] [1991]; and Nara and Fischinger, “Quantitative Infectivity Assay for HIV-1 and HIV-2, ” Nature 332:469-470 [1988]).
The in vitro therapeutic index (TI50) was defined as the fold-difference between the EC50 and IC50. The results for the various compounds are included in FIGS. 8 and 19.

[1] = Human immunodeficiency virus 1, NL43, CEM-SS

Row | Structure (SMILES) | melting point | further results
1 | Cc1cccc2c1nc(-c1ccc3ccccc3c1)n2Cc1c(F)cccc1F | 175 to 176 °C | –
2 | Fc1cccc(F)c1Cn1c(-c2c(F)cccc2F)nc2cc(Cl)ccc21 | 136 °C and 136 to 137 °C | –
3 | Fc1cccc(F)c1Cn1c(-c2ccccc2)nc2ccccc21 | 163 °C | –
4 | Fc1cccc(F)c1Cn1c(-c2c(F)cccc2F)nc2ccc(Cl)cc21 | 152 to 153 °C | –
5 | Cc1cccc2c1nc(-c1cccnc1)n2Cc1c(F)cccc1F | 186 to 188 °C | –
6 | Cc1ccc2c(c1)nc(-c1c(F)cccc1F)n2Cc1c(F)cccc1F | 147 to 149 °C | –
7 | Cc1cccc2c1nc(-c1ccncc1)n2Cc1c(F)cccc1F | 171 to 172 °C | –
8 | Cc1ccc2nc(-c3c(F)cccc3F)n(Cc3c(F)cccc3F)c2c1 | 172 to 173 °C | –
9 | Cc1cccc2c1nc(-c1c(F)cccc1F)n2Cc1c(F)c(F)c(F)c(F)c1F | 155 to 156 °C | –
10 | Cc1cccc2nc(-c3c(F)cccc3F)n(Cc3c(F)cccc3F)c12 | 177 °C and 177 to 178 °C | –
11 | Cc1cccc2c1nc(-c1c(F)cccc1F)n2Cc1cccnc1 | 131 to 132 °C | –
12 | Cc1ccc2c(nc(-c3c(F)cccc3F)n2Cc2c(F)cccc2F)c1C | 176 to 177 °C | –
13 | O=S(=O)(c1ccccc1)n1c(-c2c(F)cccc2F)nc2ccccc21 | 104 to 106 °C | –
14 | Cc1cc(C)c2nc(-c3c(F)cccc3F)n(Cc3c(F)cccc3F)c2c1 | 153 to 154 °C | –
15 | O=[N+]([O-])c1ccc2c(c1)nc(-c1c(F)cccc1F)n2Cc1c(F)cccc1F | 168 to 169 °C | –
16 | COc1cccc2c1nc(C1CC1)n2Cc1c(F)cccc1F | 136 to 139 °C | –
17 | COC(=O)c1cccc2c1nc(-c1c(F)cccc1F)n2Cc1c(F)cccc1F | 184 to 186 °C | –
18 | CC(C)=CCn1c(-c2c(F)cccc2F)nc2c(C)cccc21 [(X = CH3) R = prenyl, 1-(3,3-dimethylallyl)-2-(2,6-difluorophenyl)-4-methylbenzimidazole] | 78 to 79 °C | –
19 | Fc1cccc(F)c1-c1nc2ccccc2n1Cc1ccccc1 [Compound 28, 1-benzyl-2-(2,6-difluorophenyl)benzimidazole] | 124 °C | RT inhibition, result in words (HIV-1 WT RT; WT RT): decrease in inhibition
20 | Cc1cccc2c1nc(-c1c(F)cccc1F)n2Cc1ccccc1 [Compound 29, 1-benzyl-2-(2,6-difluorophenyl)-4-methylbenzimidazole] | 112 to 117 °C | RT inhibition, result in words (HIV-1 WT RT; WT RT): decrease in inhibition
21 | Cc1cccc2c1nc(-c1c(F)cccc1F)n2Cc1c(Cl)cccc1Cl [Compound 30, 1-(2,6-dichlorobenzyl)-2-(2,6-difluorophenyl)-4-methylbenzimidazole] | 202 to 203 °C | RT inhibition, result in words (HIV-1 WT RT; WT RT): decrease in inhibition

Row | Structure (SMILES) | melting point | further results
22 | Fc1cccc(F)c1COCc1nc2ccccc2n1Cc1c(F)cccc1F [Compound 32, 1-(2,6-difluorobenzyl)-2-(2,6-difluorobenzyloxymethyl)benzimidazole] | 109 °C | –
23 | Cc1cccc2c1nc(C(C)C)n2Cc1c(F)cccc1F [Compound 34, 1-(2,6-difluorobenzyl)-2-isopropyl-4-methylbenzimidazole] | 151 to 153 °C | cytotoxicity and anti-viral effect, summary graph, result in words (HIV-1 WT virus (NL4-3)): effective therapeutic dose
24 | Cc1nc2ccccc2n1Cc1c(F)cccc1F [Compound 35, 1-(2,6-difluorobenzyl)-2-methylbenzimidazole] | 99 °C | –
25 | Cc1cccc2c1nc(-c1cccc3ccccc13)n2Cc1c(F)cccc1F [Compound 37, 1-(2,6-difluorobenzyl)-2-(1-naphthyl)-4-methylbenzimidazole] | 121 to 123 °C | –
26 | Fc1cccc(F)c1Cn1c(-c2c(F)cccc2F)nc2cc(Br)ccc21 [Compound 38, 1-(2,6-Difluorobenzyl)-2-(2,6-difluorophenyl)-5-bromobenzimidazole] | 155 to 156 °C | cytotoxicity and anti-viral effect, summary graph, result in words (HIV-1 WT virus (NL4-3)): inactive
27 | O=C(c1c(F)cccc1F)n1c(-c2c(F)cccc2F)nc2ccccc21 [Compound 47, 1-(2,6-difluorobenzoyl)-2-(2,6-difluorophenyl)benzimidazole] | – | inhibition at 10 µM (HIV-1 WT RT; Table 2, 10 μM drug, WT RT, rC-dG template primer): 8%; RT inhibition, result in words (HIV-1 WT RT; WT RT): did not show appreciable RT inhibition activity
28 | Cc1cccc2c1nc(CO)n2Cc1c(F)cccc1F [Compound 48, 1-(2,6-difluorobenzyl)-2-hydroxymethyl-4-methylbenzimidazole] | – | inhibition at 10 µM (HIV-1 WT RT; Table 3, 10 μM drug, WT RT, rC-dG template primer): 12%; % inhibn (1 μM) (HIV-1 WT RT; Table 6, 1 μM drug, WT HIV-1 RT, average of two experiments done in triplicates): 51%; IC50 (HIV-1 WT RT; Table 11, WT RT, read-out: IC50): 1880 nM; EC50 (HIV-1 WT virus (NL4-3)): 2400 nM
29 | CC(=O)OCc1cccc2c1nc(-c1c(F)cccc1F)n2Cc1c(F)cccc1F [Compound 51, 1-(2,6-difluorobenzyl)-2-(2,6-difluorophenyl)-4-acetoxymethylbenzimidazole] | – | EC50 (HIV-1 WT virus (NL4-3); [1]): 59 nM
30 | Oc1cccc2c1nc(-c1c(F)cccc1F)n2Cc1c(F)cccc1F [Compound 52, 1-(2,6-Difluorobenzyl)-2-(2,6-difluorophenyl)-4-hydroxyl-benzimidazole] | 257 to 259 °C | EC50 (HIV-1 WT virus (NL4-3); [1]): 650 nM
31 | N#Cc1cccc2c1nc(-c1c(F)cccc1F)n2Cc1c(F)cccc1F [Compound 60, 1-(2,6-difluorobenzyl)-2-(2,6-difluorophenyl)-4-cyanobenzimidazole] | – | EC50 (HIV-1 WT virus (NL4-3); [1]): 430 nM
32 | N=C(NO)c1cccc2c1nc(-c1c(F)cccc1F)n2Cc1c(F)cccc1F [Compound 61, N-hydroxy 1-(2,6-difluorobenzyl)-2-(2,6-difluorophenyl)benzimidazole-4-carboxamidine] | 214 to 216 °C and 213 to 216 °C | inhibitory potency against HIV-1 (CIC50), result in words (HIV-1 WT virus (NL4-3)): clearly detrimental to potency; EC50 (HIV-1 WT virus (NL4-3); [1]): 190 nM
33 | NC(=O)c1cccc2c1nc(-c1c(F)cccc1F)n2Cc1c(F)cccc1F [Compound 62, 1-(2,6-difluorobenzyl)-2-(2,6-difluorophenyl)benzimidazole-4-carboxylic acid amide] | 260 to 261 °C | inhibitory potency against HIV-1 (CIC50), result in words (HIV-1 WT virus (NL4-3)): clearly detrimental to potency; EC50 (HIV-1 WT virus (NL4-3); [1]): 4900 nM
34 | O=C(O)c1cccc2c1nc(-c1c(F)cccc1F)n2Cc1c(F)cccc1F [Compound 64, 1-(2,6-Difluorobenzyl)-2-(2,6-difluorophenyl)benzimidazole-4-carboxylate] | 179 to 180 °C and 178 to 180 °C | inhibitory potency against HIV-1 (CIC50), result in words (HIV-1 WT virus (NL4-3)): clearly detrimental to potency; EC50 (μM) (HIV-1 WT virus (NL4-3)): NRVC
35 | CC(C)(O)c1cccc2c1nc(-c1c(F)cccc1F)n2Cc1c(F)cccc1F [Compound 65, 1-(2,6-Difluorobenzyl)-2-(2,6-difluorophenyl)-4-benzimidazoyl-2-propanol] | – | EC50 (HIV-1 WT virus (NL4-3)): 6340 nM
36 | C=C(C)c1cccc2c1nc(-c1c(F)cccc1F)n2Cc1c(F)cccc1F [Compound 66, 1-(2,6-Difluorobenzyl)-2-(2,6-difluorophenyl)-4-isopropenylbenzimidazole] | 156 to 158 °C | EC50 (HIV-1 WT virus (NL4-3); [1]): 1440 nM
37 | OCc1cccc2c1nc(-c1c(F)cccc1F)n2Cc1c(F)cccc1F [Compound 67, 1-(2,6-Difluorobenzyl)-2-(2,6-difluorophenyl)-4-hydroxymethylbenzimidazole] | – | EC50 (HIV-1 WT virus (NL4-3); [1]): 23 nM
38 | O=Cc1cccc2c1nc(-c1c(F)cccc1F)n2Cc1c(F)cccc1F [Compound 68, 1-(2,6-Difluorobenzyl)-2-(2,6-difluorophenyl)-benzimidazole-4-carbaldehyde] | 151 to 153 °C | EC50 (HIV-1 WT virus (NL4-3); [1]): 120 nM
39 | Fc1cccc(F)c1Cn1c(-c2c(F)cccc2F)nc2c(CCl)cccc21 [Compound 69, 1-(2,6-difluorobenzyl)-2-(2,6-difluorophenyl)-4-chloromethylbenzimidazole] | 143 to 144 °C | EC50 (HIV-1 WT virus (NL4-3); [1]): 180 nM
40 | CC(=O)NCc1cccc2c1nc(-c1c(F)cccc1F)n2Cc1c(F)cccc1F [Compound 72] | – | EC50 (μM) (HIV-1 WT virus (NL4-3)): NRVC
41 | CC(=O)N(C)Cc1cccc2c1nc(-c1c(F)cccc1F)n2Cc1c(F)cccc1F [Compound 73, 1-(2,6-Difluorobenzyl)-2-(2,6-difluorophenyl)-4-(N-acetyl-N-methyl)-aminomethylbenzimidazole] | – | EC50 (HIV-1 WT virus (NL4-3)): 580 nM
42 | N#Cc1cccc2c1nc(-c1c(F)cccc1F)n2Cc1c(F)cccc1F [Compound 4007] | – | % inhibn (10 μM) (HIV-1 WT RT; Table 1, 10 μM drug, WT RT, rC-dG template primer): 26%
